“Also recorded” adds a separate entry of the source.
Legend:
[1] = tested on: mice; experiment: LPS-induced acute lung injury (ALI) model; assay type: in vivo; settings: 10 mg/kg i.p.
Procedure: LPS-induced acute lung injury induced by a single oropharyngeal instillation of lipopolysaccharide (LPS) (50 µg/mouse) in 16-week-old mice as described previously. Briefly, LPS (L4391, MilliporeSigma, Burlington, MA, USA) was dissolved in sterile saline and administered at 50 µg/mouse in 40 µL after anesthesia induced by ketamine/xylazine. The mice were studied 24 h after LPS or saline instillation.
BALF was collected from anesthetized mice by lavaging lungs two times with 0.8 mL Hanks’ balanced salt solution without calcium and magnesium (HBSS) (Sigma-Aldrich, St. Louis, MI, USA). Supernatants were collected as BALF for further analyses.
The number of cells in the BALF was estimated using an automated cell counter, the Countess II FL cell counter (Thermo Fisher Scientific Inc., Waltham, MA, USA).
Albumin levels were measured by the Mouse Albumin Elisa Assay kit (Cat # E99-134), which was obtained from Bethyl Laboratories. BALF samples from the LPS group were diluted at a 1:2000 ratio.
Total protein in BALF samples was measured using the Pierce BCA protein assay kit (Cat # 23225) as detailed in the product manual (Thermo Fisher Scientific).
The right middle lobe was immediately placed in an RNA later solution and stored at −80 °C until the RNA extraction procedure. RNA extraction was performed using RNeasy Mini Kits from Qiagen (Valencia, CA, USA). One microgram of total RNA was reverse transcribed to cDNA using an iScript cDNA synthesis kit (Bio-Rad, Hercules, CA, USA). Expression of the target genes was quantified using gene-specific primers and PowerSYBRGreen master mix (Thermo Fisher Scientific) in a QuantStudio 3 Real-Time PCR instrument (Thermo Fisher Scientific). Predesigned mouse IL-6 (QT00098875), TNF-α (QT00104006), IL-1β (QT01048355), CXCL1 (QT00115647), CCL2 (QT00167832), CXCL3 (QT00151599) and CXCL9 (QT00097062) primers were purchased from Qiagen (Valencia, CA, USA). Fold changes in gene expression relative to the housekeeping gene TATA-Box Binding Protein (Tbp, QT00198443) were determined. Gene expression values were calculated based on the […] method.

[2] = In vivo pharmacokinetic experiment; parameters: species or system C57BL/6J mice; settings: mice, 10 mg/kg; for Cmax (in words): oral
Procedure: Twenty 8–9-week-old male C57BL/6J mice were taken for the in vivo pharmacokinetic experiment. They were divided into four groups, each containing five mice. Each group was used for either oral or intraperitoneal administration of compound 4f or 15a. Both the compounds were reconstituted in 5% DMSO, 5% TWEEN 80 in saline water (pH = 7.4). The mice were orally and intraperitoneally administered compounds at 10 mg/kg dose. Blood samples were collected at 0, 0.5, 1, 2, 4, 6, and 24 h after administration of the compound, and serum was isolated with the compound. For the pharmacokinetic study, 10 μL of serum samples from mice were extracted with a 2:1 mixture of LC/MS-grade chloroform and methanol, followed by intermittent vortexing, and then centrifuged at 4000 rpm for 10 min at 4 °C. Thereafter, the supernatant was collected and analyzed by LC−MS/MS to measure the concentrations of compounds 4f and 15a in the serum.

[3] = Caco-2 permeability; assay type: in vitro ADME; settings: human, Caco-2, pH 7.4
Procedure: Caco-2 cells were cultured in 75 cm^2 flasks to 80–90% confluence according to the ATCC and Millipore recommendations in a humidified atmosphere at 37 °C and 5% CO2. Cells were detached with a trypsin/EDTA solution, resuspended in the complete medium containing DMEM high glucose ([…]) with L-glutamine (4 mM) supplemented with 10% heat-inactivated Fetal Bovine Serum, 1% non-essential amino acids, and 730 nM puromycin, and seeded at a density of 5 × 10^5 cells in a 75 cm^2 flask. After 5 days, cells were trypsinized and resuspended in the complete medium to a final concentration of 600 × 10^3 cells/mL. Of the cell suspension, 400 µL was added to each well of an HTS 24-Multiwell Insert System and 25 mL of prewarmed complete medium was added to the feeder tray. Caco-2 cells were incubated in the Multiwell Insert System for 6–10 days before the transport experiments. The medium in the filter plate and feeder tray was refreshed every other day. Prior to the transport experiment, the integrity of the monolayer was verified by measuring the transepithelial electrical resistance (TEER) for every well using a Millicell-ERS system ohm meter. The final TEER values were within the range of 150–600 Ω × cm^2, as required for the assay conditions. The 24-well insert plate was removed from its feeder plate and placed in a new sterile 24-well transport analysis plate. The inserts were washed with PBS after medium aspiration. Ketoprofen, atenolol, digoxin, and quinidine were used as reference compounds.
To determine transport rates in the basolateral (B)-to-apical (A) direction, 1000 μL of the test compound solutions was added into the wells of the transport analysis plate, and the wells in the filter plate were filled with 300 μL of buffer (apical compartment).
The effect of the inhibitor on the Pgp-mediated transport of the tested compounds was assessed by determining the bidirectional transport in the presence or absence of verapamil. The Caco-2 cells were preincubated for 30 min at 37 °C with 100 μM of verapamil in both apical and basolateral compartments. After removal of the preincubation medium, the test compounds with verapamil (100 μM) in transport buffer were added in donor wells, while the receiver wells were filled with the appropriate volume of transport buffer with 100 μM of verapamil. The final amounts of test and reference compounds were 10 μM each. The plates were incubated for 90 min at 37 °C under continuous shaking at 100 rpm. Aliquots of 75 μL were taken from the donor and receiver compartments for LC–MS/MS analysis. All samples were mixed with 2 volumes of acetonitrile followed by protein sedimentation by centrifuging at 10,000 rpm for 10 min. Supernatants were analyzed using the HPLC system coupled with a tandem mass spectrometer.

O=C(NC12CC3CC(CC(C3)C1)C2)NS(=O)(=O)c1ccc(OC(F)(F)F)cc1 [Compound 4f]
effect on LPS-induced increase in total protein in BALF [1]: neither AUDA nor novel sEH inhibitors’ (4f and 4l) effect | number of cells in bronchoalveolar lavage (BAL) [1]: similarly attenuated the number of cells in BAL | LPS-induced lung gene expression of interleukin 1B (IL-1B) ([1]; qPCR): attenuated | lung gene expression of CCL-2 ([1]; qPCR): more pronounced in reducing IL-6 and CCL-2 expressions | lung gene expression of CXCL1 ([1]; qPCR): similarly attenuated | LPS-induced lung gene expression of interleukin 6 (IL-6) ([1]; qPCR, 10 mg/kg): attenuated; also recorded: more pronounced in reducing IL-6 and CCL-2 expressions | half-life ([2]; male, C57BL/6J, mouse, serum, other: oral and intraperitoneal, oral and intraperitoneal administration, read-out: plasma half-life): < 2 h | Cmax (in words) [2]: better than that of 15a | Papp A→B at 90 min, 10 µM ([3]; A to B, read-out: Caco-2 Permeability Apical to Basal (Papp)): 14.9 ×10⁻⁶ cm/s | Papp B→A at 90 min, 10 µM ([3]; B to A, read-out: Caco-2 Permeability Basal to Apical (Papp)): 12.6 ×10⁻⁶ cm/s

O=C(NC12CC3CC(CC(C3)C1)C2)NS(=O)(=O)c1ccc2ccccc2c1 [Compound 4l]
effect on LPS-induced increase in total protein in BALF [1]: neither AUDA nor novel sEH inhibitors’ (4f and 4l) effect | LPS-induced lung gene expression of interleukin 1B (IL-1B) ([1]; qPCR): had no effect on reducing these | LPS-induced lung gene expression of interleukin 6 (IL-6) ([1]; qPCR): had no effect on reducing these | Cmax (in words) [2]: promising Cmax value

Source: PMC11242993, “Evaluation of the Therapeutic Potential of Sulfonyl Urea Derivatives as Soluble Epoxide Hydrolase (sEH) Inhibitors” (Molecules, 2024)
